In one assay the test system is NCI-H358. The assay is described as follows: Cell Growth Inhibition Assay (3D CellTiter-Glo). It is filed as cell-based. The following applies: Homo sapiens, read-out: Cell growth IC50. As for the experimental part: Cell Growth Inhibition Assay
In this experimental example, the cell growth inhibitory effect of compounds according to the present invention and positive control compounds in tumor cell lines was examined.
The cell culture medium containing the compound was replaced by 100 µL every 3 days. Luminescence analysis was performed using the 3D CellTiter-Glo Luminescent Cell Viability Assay Kit (Promega, USA) (Promega catalog number G9681). […] The percent cell growth inhibition rate was calculated from the measured relative luminescence unit (RLU) as follows. Inhibition rate = 1−((RLU compound−RLU blank)/(RLU control−RLU blank)) X 100 [formula]

Assay [1] deals with T1, SOS1 and KRAS G12C interaction (Homo sapiens, UniProt Q07889).
T1 sequence (Q07889 564-1049 limits assumed): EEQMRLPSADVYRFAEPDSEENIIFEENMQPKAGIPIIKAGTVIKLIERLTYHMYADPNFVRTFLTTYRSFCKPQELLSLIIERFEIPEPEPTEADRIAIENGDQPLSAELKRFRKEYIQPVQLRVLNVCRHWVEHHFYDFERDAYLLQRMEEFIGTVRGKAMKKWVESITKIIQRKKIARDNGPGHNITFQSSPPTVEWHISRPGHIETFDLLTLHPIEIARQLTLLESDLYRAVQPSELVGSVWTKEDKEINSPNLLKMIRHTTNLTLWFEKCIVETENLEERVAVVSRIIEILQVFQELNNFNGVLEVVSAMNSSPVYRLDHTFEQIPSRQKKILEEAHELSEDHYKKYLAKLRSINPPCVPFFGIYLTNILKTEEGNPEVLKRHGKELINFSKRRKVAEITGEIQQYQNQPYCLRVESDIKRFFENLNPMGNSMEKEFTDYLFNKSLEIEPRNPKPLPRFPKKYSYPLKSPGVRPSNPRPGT
The assay is described as follows: Biochemical analysis of the inhibitory activity of SOS1 and KRAS G12C interaction (time-resolved fluorescence, 665/615 nm). As for the experimental part:
Biochemical analysis of the inhibitory activity of SOS1 and KRAS G12C interaction
In this experimental example, the efficacy of the compound according to the present invention in inhibiting the binding of KRAS and SOS1 was biochemically measured. A KRAS G12C working solution was prepared by adding biotin-linked KRAS G12C protein and europium-linked streptavidin to assay buffer solution (20 mM HEPES, 50 mM NaCl, 200 µg/mL […] (BSA), 0.01% Pluronic F127). Then, SOS1, in which a tag consisting of six histidine residues is covalently linked, and anti-histidine tag antibody D2 were added to the assay buffer to prepare an SOS1 working solution. After these two working solutions were added to the wells of a well plate, solutions diluted according to the experimental concentration of the test compound from the 10 mM dimethyl sulfoxide (DMSO) stock solution of the Example compound or positive control compound were added to the wells in 100 nL aliquots using an Echo automatic dispenser (Beckman Coulter, USA), or a DMSO blank was added to the wells.

In assay [2] the target is T2, SOS2 and KRAS G12C interaction (Homo sapiens, UniProt Q07890).
T2 sequence (Q07890 1-1332): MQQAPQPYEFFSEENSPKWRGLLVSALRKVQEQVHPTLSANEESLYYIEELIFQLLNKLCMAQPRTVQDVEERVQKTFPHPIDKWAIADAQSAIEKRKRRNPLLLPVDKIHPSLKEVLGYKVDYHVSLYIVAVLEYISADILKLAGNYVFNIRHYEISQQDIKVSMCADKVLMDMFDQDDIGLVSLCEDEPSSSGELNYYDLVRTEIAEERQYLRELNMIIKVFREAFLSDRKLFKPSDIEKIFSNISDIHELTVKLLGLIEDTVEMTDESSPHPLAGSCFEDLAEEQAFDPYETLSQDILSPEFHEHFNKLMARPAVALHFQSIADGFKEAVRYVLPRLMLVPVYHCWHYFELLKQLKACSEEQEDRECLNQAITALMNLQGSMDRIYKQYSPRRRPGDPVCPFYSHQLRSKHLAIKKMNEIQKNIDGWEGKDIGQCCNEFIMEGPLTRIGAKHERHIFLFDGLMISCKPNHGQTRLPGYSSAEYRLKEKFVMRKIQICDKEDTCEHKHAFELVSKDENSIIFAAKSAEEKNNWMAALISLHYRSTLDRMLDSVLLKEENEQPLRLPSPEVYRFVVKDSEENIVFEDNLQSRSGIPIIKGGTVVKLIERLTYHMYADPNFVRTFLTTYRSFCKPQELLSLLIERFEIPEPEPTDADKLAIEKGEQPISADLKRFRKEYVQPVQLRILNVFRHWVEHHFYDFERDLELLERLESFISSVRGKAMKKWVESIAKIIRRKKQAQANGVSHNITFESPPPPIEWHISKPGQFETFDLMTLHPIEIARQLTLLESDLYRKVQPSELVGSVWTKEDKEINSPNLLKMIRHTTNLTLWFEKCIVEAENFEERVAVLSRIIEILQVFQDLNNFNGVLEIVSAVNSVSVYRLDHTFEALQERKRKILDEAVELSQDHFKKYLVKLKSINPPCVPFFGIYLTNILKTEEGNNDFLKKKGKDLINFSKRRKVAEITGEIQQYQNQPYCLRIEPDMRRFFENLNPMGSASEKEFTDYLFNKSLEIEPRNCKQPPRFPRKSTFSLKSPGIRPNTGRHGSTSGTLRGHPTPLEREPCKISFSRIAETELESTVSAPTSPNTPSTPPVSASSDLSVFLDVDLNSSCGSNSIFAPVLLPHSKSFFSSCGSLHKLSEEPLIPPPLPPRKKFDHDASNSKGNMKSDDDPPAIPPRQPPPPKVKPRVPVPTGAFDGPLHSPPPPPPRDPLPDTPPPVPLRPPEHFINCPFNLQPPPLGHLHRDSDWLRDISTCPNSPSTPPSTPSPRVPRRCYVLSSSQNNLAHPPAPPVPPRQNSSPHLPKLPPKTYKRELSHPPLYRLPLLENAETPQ
It is filed as biochemical. The settings on record: SOS2, KRAS G12Cs; read-out: Enzyme activity IC50.

Another assay has as its system MIA-PaCa-2. Description: Reactive oxygen species (ROS) production assay. The format is cell-based. The following applies: MIA-PaCa-2 cells, 10 µM, 24 hours; Figure 3. As for the experimental part: Reactive oxygen species (ROS) production assay
In this experimental example, it was examined that the compound according to the present invention has the effect of increasing reactive oxygen in tumor cells.
MIA-PaCa-2 (Korea Cell Line Bank KCLB No. 21420), a cancer cell line harboring KRAS G12C mutation, was cultured in a cell culture medium containing RPMI1640 (Gibco, USA, catalog no. 11875-119), 10% fetal bovine serum (HyClone, USA, catalog no. SH30919.03), and 1 × diluted HyClone Antibiotic Antimycotic solution (HyClone, USA, catalog no. SV30079.01). 3 × 10^5 cells were seeded per well in a 6-well plate and cultured for 1 day at 37°C under 5% CO2 conditions. […] The cells were then collected in a microtube and analyzed for fluorescence using a BD LSRFortessa™ X-20 Cell Analyzer (BD Biosciences, USA) (excitation wavelength: 488 nm, emission wavelength: 535 nm). The fluorescence intensity due to the increase in reactive oxygen species was measured for 10,000 cells. Among the cells treated with 500 µM hydrogen peroxide, which was the positive control, the section in which the fluorescence intensity increased compared to the cells treated with the blank sample was found, and the average fluorescence intensity of the cells within this section was calculated. […]

[3] abbreviates: SOS1, KRAS G12C, 60 minutes at room temperature, read-out: Enzyme activity IC50.

These results are taken from patent EP4737453A1, “NOVEL SELENOPHENE DERIVATIVES” (Aigen Sciences Inc., priority 2023, dated 2025).

Molecules are shown by their SMILES. pIC50: −log10 of the molar value. Read-outs that look alike come from different tables or passages of the source.

For orientation: pIC50 means the negative decadic logarithm of the IC50, by convention in mol/L.

For the compound `CNCc1ccccc1-c1csc([C@H](C)Nc2nc(C)nc3cc(OC)c(OC)cc23)c1` [BAY-293, (S)-6,7-dimethoxy-2-methyl-N-[1-[4-[2-[(methylamino)methyl]phenyl]thiophene-2-yl]ethyl]quinazolin-4-amine, reference compound], the pIC50 with NCI-H358 (288 h, NCI-H358 (KRAS G12C), 96-well 3D assay plate, 12 days) is 6.87.
`COc1cc2nc(C)nc(N[C@H](C)c3cc(-c4ccccc4CN4CCCC4)c[se]3)c2cc1OC` [Example 6, (R)-6,7-dimethoxyl-2-methyl-N-(1-(4-(2-(pyrrolidine-1-ylmethyl)phenyl)selenophen-2-yl)ethyl)quinazolin-4-amine]: the pIC50 in assay [1] was 7.12; in the assay on NCI-H358 (NCI-H358, 288 h), 7.06.
As to `Cc1c(C#N)cccc1[C@@H](C)Nc1nnc(C)c2cnc(N3CCOCC3)cc12` [MRTX0902, (R)-2-methyl-3-(1-((4-methyl-7-morpholinopyrido[3,4-d]pyridazine-1-yl)amino)ethyl)benzonitrile, reference compound], the negative logarithm of the IC50 (pIC50) in assay [2] is 5.79; with NCI-H358 (NCI-H358, 288 h), 6.97. Besides, the “ROS production compared to the blank sample” value in the assay on MIA-PaCa-2 is listed as “did not increase ROS production”.
Consider `CNCc1ccccc1-c1c[se]c([C@@H](C)Nc2nc(Cl)nc3c2CN(C(=O)C2(OC)CCOCC2)C3)c1` [Example 3, (R)-(2-chloro-4-((1-(4-(2-((methylamino)methyl)phenyl)selenophen-2-yl)ethyl)amino)-5,7-dihydro-6H-pyrolo[3,4-d]pyrimidine-6-yl)(4-methoxytetrahydro-2H-pyran-4-yl)methanone], for which the negative-log IC50 (pIC50) is 7.46 in assay [1] and 6.91 in the assay with NCI-H358 (NCI-H358, 288 h).
For the compound `COc1cc2nc(C)nc(N[C@H](C)c3cc(-c4ccccc4CN(C)C)c[se]3)c2cc1O[C@H]1CCOC1` [Example 8, N-((R)-1-(4-(2-((dimethylamino)methyl)phenyl)selenophen-2-yl)ethyl)-7-methoxy-2-methyl-6-(((S)-tetrahydrofuran-3-yl)oxy)quinazolin-4-amine], the negative logarithm of the IC50 (pIC50) in assay [1] (setting [3]) is 7.79.
For the compound `CNCc1ccccc1-c1c[se]c([C@@H](C)Nc2nc(C)nc3cc(OC)c(O[C@H]4CCOC4)cc23)c1` [Example 2, 7-methoxy-2-methyl-N-((R)-1-(4-(2-((methylamino)methyl)phenyl)selenophen-2-yl)ethyl)-6-(((S)-tetrahydrofuran-3-yl)oxy)quinazolin-4-amine], the pIC50 is 7.78 in assay [1] and 7.23 in the assay with NCI-H358 (NCI-H358, 288 h).
For the compound `[2H]C([2H])([2H])NCc1ccccc1-c1c[se]c([C@@H](C)Nc2nc(C)nc3cc(OC)c(OC)cc23)c1` [Example 7, (R)-6,7-dimethoxyl-2-methyl-N-(1-(4-(2-(((methyl-d3)amino)methyl)phenyl)selenophen-2-yl)ethyl)quinazolin-4-amine], the pIC50 was 7.72 in assay [1] and 7.59 in the assay on NCI-H358 (NCI-H358, 288 h).
The matching figures for `COc1cc2nc(C)nc(N[C@H](C)c3cc(-c4ccccc4CN(C)C)c[se]3)c2cc1OC` [Example 5, (R)-N-(1-(4-(2-((dimethylamino)methyl)phenyl)selenophen-2-yl)ethyl)-6,7-dimethoxyl-2-methylquinazolin-4-amine]: 7.56 and 7.30.
As to `CNCc1ccccc1-c1c[se]c([C@@H](C)Nc2nnc(C)c3cnc(N4CCOCC4)cc23)c1` [Example 4, (R)-4-methyl-N-(1-(4-(2-((methylamino)methyl)phenyl)selenophen-2-yl)ethyl)-7-morpholinopyrido[3,4-d]pyridazine-1-amine], the negative-log IC50 (pIC50) in assay [1] is 7.87; in the assay with NCI-H358 (NCI-H358, 288 h), 7.29.
As to `COc1cc2nc(C)nc(N[C@H](C)c3cc(-c4ccccc4CN4CCCC4)c[se]3)c2cc1O[C@H]1CCOC1` [Example 9, 7-methoxy-2-methyl-N-((R)-1-(4-(2-(pyrrolidine-1-ylmethyl)phenyl)selenophen-2-yl)ethyl)-6-(((S)-tetrahydrofuran-3-yl)oxy)quinazolin-4-amine], the pIC50 in assay [1] (setting [3]) is 7.65.
